According to paper PMC9668832, “Increased slow dynamics defines ligandability of BTB domains” (Nature Communications, 2022):

Molecular target: T1, MIZ1^BTB (Homo sapiens, UniProt Q13105)
T1 construct: gene ZBTB17; BTB domain, residues 1-115; N-terminal Trx-His6 tag cleaved with PreScission; E. coli BL21(DE3); 13C,15N-labelled; homodimer in solution
T1 sequence (Q13105 1-115): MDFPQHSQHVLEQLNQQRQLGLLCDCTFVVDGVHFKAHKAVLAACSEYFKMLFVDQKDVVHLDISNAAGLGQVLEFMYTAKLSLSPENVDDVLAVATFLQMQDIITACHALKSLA
Test: 1H-15N HSQC NMR titration
Assay type: binding

Row | SMILES | Kd [µM]
1 | Nc1ccc(-n2cnc(Cl)c2Cl)cc1 [2GG4] | 68 ± 9
2 | OC1(c2ccc(Cl)c(C(F)(F)F)c2)CCNCC1 [4CC2] | 425 ± 59
3 | Cc1nc2ccc(Cl)cc2nc1C [5DD7] | 870 ± 140
